Here are results for 53 molecules from patent US20050288347A1, “Certain triazole-based compounds, compositions, and uses thereof” (priority 2004, published 2005).

SMILES strings stand for the structures. Entries after “also recorded” stand apart in the source; their conditions may differ.

The test system of the first experiment is protein kinase. Description: HTS ATP-utilizing enzyme assay, off-chip mobility-shift format (Caliper HTS 250). It counts as biochemical, human.
Conditions: not given
The text has this:
The following procedures describe the reagent and plate preparation for a HTS of an ATP-utilizing enzyme, such as a protein kinase, run in an off-chip mobility-shift assay format. The following provides an HTS protocol for running a protein kinase HTS screen on a Caliper HTS 250 microfluidics system. The following parameters are dependent on the protein kinase used and can be determined by one skilled in the art as part of a typical assay development process. For example, the peptide substrate used can be identified from the current literature, by screening a peptide library of potential protein kinase substrates, or by other applicable means accepted in the field.
The following table provides typical screen assay parameters appropriate for a Caliper HTS 250 microfluidics system.
The reagents and buffers listed in the following table are generally applicable for developing and running an HTS screen on a human protein kinase using the Caliper HTS 250 system.
The following reagents were prepared using the previously described buffers.
A 2× Master Buffer solution was prepared by combining 200 mL of 1 M HEPES, pH 7.5, 2 mL of 10% Triton X-100, 20 mL of 10% BSA, and 778 mL of H2O.
Assays to determine the kinase inhibitory activity of chemical entities of the present disclosure were performed using a Caliper HTS 250 microfluidics device, Greiner U-bottom assay plates, a Multidrop for transfer of reagents, and Biomek FX (AMNCBM03) software. Initially, 2.4 μL of a 1 mM solution of a test compound in 100% DMSO was added to a well of the Greiner U-bottom plate. A single Greiner U-bottom plate having 24×16 wells could include multiple test compounds. […] Using the Biomek FX, 10 μL of 0.5 M EDTA was added by the span-8 to wells, indicated as 100% Control and 2.4 μL of 100% DMSO was added by the span-8 to wells, indicated as 0% Control. […] The total reaction volume in each well was 25 μL, and the concentration of the test compound was 10 μM. The assay plate was incubated for 2.5 hrs at 20° C. to 22° C. […] The inhibition of the ATP-utilizing enzyme, such as a particular protein kinase, was determined by measuring the ratio of the peptide substrate to phosphorylated product for each well of the assay plate using the Caliper HTS 250 system.
The use of three-sigma statistical limits represents a conservative method for declaring potential hits among targets. The three-sigma activity, as well as the mean population activity, can be different for each target enzyme.
Consider `COc1ccccc1-n1c(SCCC(=O)Nc2cc(NC(=O)c3ccco3)ccc2C)nnc1-c1ccccc1`, for which the “protein kinase against which the compound exhibits inhibitory activity (Table 3)” value is “MAPKAPK-3”.

Still in this experiment, the particulars now being: kinase(s) for which the compound exhibits protein kinase inhibitory activity; test compound 10 μM; active = greater than three-sigma from the mean activity of inactive compounds.
Regarding `O=C(CSc1nnc(-c2ccc(O)cc2)n1-c1ccccc1)NCc1ccco1`, the Kinase result is given as “GSK3-β; also recorded: GSK3-α”.
For the molecule `COc1ccc(-c2nnc(SCC(=O)Nc3cccc(Cl)c3)n2-c2ccccc2)cc1`, the Kinase entry was “PRAK and CHEK2 and AURORA-A”.
Turning to `CC(=O)c1ccc(NC(=O)CSc2nnc(COc3ccccc3)n2-c2ccc(C)cc2)cc1`, the Kinase entry is on record as “CHEK2”.
On the same count and under the same terms, then `Cc1nnc(SC(C)C(=O)Nc2ccccc2)n1Cc1ccccc1` (centres unmarked) [2-(4-benzyl-5-methyl-4H-1,2,4-triazol-3-ylthio)-N-phenylpropanamide], with “PKA and DAPK1”.
Still for that read-out and setting: the value for `CCOc1ccc(NCc2nnc(SCC#N)n2-c2cccc(Cl)c2)cc1` was “PDGFRR-α and FYN”.
In the case of `CCn1c(S)nnc1CCc1nc2ccccc2[nH]1` [5-(2-(1H-benzo[d]imidazol-2-yl)ethyl)-4-ethyl-4H-1,2,4-triazole-3-thiol], the Kinase result is “GSK3-β; also recorded: GSK3-α”.
For the molecule `COc1ccc(NCc2nnc(S)n2-c2cccc(Cl)c2)cc1`, the Kinase result was “PDGFRR-α and AURORA-A and FYN”.
The same measure, in the same setting: then `Oc1ccccc1-c1nnc(S)n1CCc1ccccc1` [2-(5-mercapto-4-phenethyl-4H-1,2,4-triazol-3-yl)phenol], with “CDK2-cyclinE; also recorded: DAPK1”.
Consider `COCCCn1c(SCC(=O)Nc2c(C)cccc2C)nnc1-c1ccncc1`, for which the Kinase result is on record as “FYN”.
Turning to `CCOC(=O)CSc1nnc(-c2ccncc2)[nH]1` [ethyl 2-(5-(pyridin-4-yl)-4H-1,2,4-triazol-3-ylthio)acetate], the Kinase entry was “CDK2-cyclinA and AURORA-A and CDK5”.
On the same count and under the same terms, the value for `CCn1c(SCC(=O)OC)nnc1-c1ccc([N+](=O)[O-])cc1` [methyl 2-(4-ethyl-5-(4-nitrophenyl)-4H-1,2,4-triazol-3-ylthio)acetate] was “PDGFRR-α and FYN”; that for `O=C(CSc1nnc(CC2CCCCC2)n1-c1ccccc1)OCc1ccccc1` [benzyl 2-(5-(cyclohexylmethyl)-4-phenyl-4H-1,2,4-triazol-3-ylthio)acetate] was “PDK1 and HCK”.
On to `CCn1c(SCC(=O)c2cc(OC)ccc2OC)nnc1C(C)C`, for which the Kinase result is “PDGFRR-α and FLT-3 and FYN”.
Consider `COc1ccccc1-n1c(CNc2c(C)cccc2C)nnc1SCC(=O)Nc1cccc(O)c1`, for which the Kinase entry was “CHEK2”.
On to `COc1ccc(-n2c(C)nnc2S)cc1` [4-(4-methoxyphenyl)-5-methyl-4H-1,2,4-triazole-3-thiol], for which the Kinase entry is “AURORA-A”.
Same read-out and setting: then `CCn1c(SCC(=O)Nc2ccc(C)cc2)nnc1-c1ccc(O)cc1`, with “AURORA-A”.
For `CC1CCN(C(=O)CSc2nnc(Cc3ccccc3)n2-c2cccc(Cl)c2)CC1`, the Kinase result is reported as “LCK”.
As for `COc1ccccc1-c1nnc(S)n1-c1ccc(C)cc1` [5-(2-methoxyphenyl)-4-p-tolyl-4H-1,2,4-triazole-3-thiol], the Kinase entry is “CDK2-cyclinA and CDK2-cyclinE and CDK5”.
The same measure, in the same setting: the value for `COc1ccc(-n2c(SCC(=O)O)nnc2-c2ccccc2OC)cc1` was “AURORA-A”; that for `COc1ccccc1-n1c(SCC(=O)O)nnc1-c1ccccc1C` [2-(4-(2-methoxyphenyl)-5-o-tolyl-4H-1,2,4-triazol-3-ylthio)acetic acid] was “CHEK2”.
On the same count and under the same terms, then `Cn1c(SCC(=O)Nc2cccc(O)c2)nnc1-c1ccc(NS(C)(=O)=O)cc1`, with “AURORA-A”; and `CNC(=O)CSc1nnc(-c2ccc(OC)cc2)n1-c1ccccc1`, with “SYK and PRAK”.
With `CCn1c(SCC(=O)O)nnc1-c1ccc(S(=O)(=O)N2CCOCC2)cc1`, the Kinase result is reported as “CDK1”.
As to `CCc1nnc(NC(=O)CSc2nnc(-c3ccc(NS(=O)(=O)c4ccc(C)cc4)cc3)n2C)s1`, the Kinase result is “PDGFRR-α”.
Consider `CCn1c(S)nnc1-c1cc2ccccc2cc1O` [3-(4-ethyl-5-mercapto-4H-1,2,4-triazol-3-yl)naphthalen-2-ol], for which the Kinase entry is given as “AURORA-A”.
Consider `COc1ccccc1NC(=O)CSc1nnc(CNc2cccc(Cl)c2)n1-c1ccccc1`, for which the Kinase entry is “MSK1 and SGK1”.
Turning to `CCn1c(CNc2ccccc2Cl)nnc1SC(C)C(=O)Nc1ccc([N+](=O)[O-])cc1` (centres unmarked), the Kinase result is “PDGFRR-α”.
Regarding `O=C(CSc1nnc(-c2ccncc2)n1Cc1ccco1)NCc1ccco1`, the Kinase entry was “FYN”.
On the same count and under the same terms, the value for `CCn1c(CNc2ccc(C)cc2C)nnc1SCC(=O)Nc1ccccc1-c1ccccc1` was “GSK3-α”; that for `NC(=O)CSc1nnc(-c2cc3ccccc3cc2O)n1Cc1ccco1` was “SRC”.
For `Cn1c(SCC(=O)c2ccccc2)nnc1-c1ccncc1` [2-(4-methyl-5-(pyridin-4-yl)-4H-1,2,4-triazol-3-ylthio)-1-phenylethanone], the Kinase entry is “PKA and MSK1 and AURORA-A”.
On to `COc1ccc(-n2c(S)nnc2CNc2cccc(C(F)(F)F)c2)cc1`, for which the Kinase result is given as “GSK3-α; also recorded: GSK3-β”.
Still for that read-out and setting: then `Cc1cccc(-c2nnc(SCC(=O)NCc3ccccc3)n2C)c1` [N-benzyl-2-(4-methyl-5-m-tolyl-4H-1,2,4-triazol-3-ylthio)acetamide], with “MAPKAPK-2 and FYN”; and `Cn1c(COc2ccc(Br)cc2)nnc1SCC(=O)O`, with “AURORA-A”.
Same read-out and setting: the value for `CCn1c(SCC(=O)Nc2cccc(C(C)=O)c2)nnc1-c1ccc(O)cc1` was “GSK3-α”.

The same experiment, now with this note: test compound 10 μM; active = activity greater than three-sigma from the mean of the predominately inactive population for that enzyme.
`COc1ccccc1-n1c(SCCn2cccc2)nnc1-c1cccc(Cl)c1`: the “protein kinase against which the compound exhibits inhibitory activity (Table 3)” value is recorded as “ROCK2”.
Turning to `COc1ccc(NCc2nnc(SCc3ccc(Cl)cc3)n2-c2ccccc2)cc1`, the “protein kinase against which the compound exhibits inhibitory activity (Table 3)” value was “PDGFRR-α and FYN”.
On the same count and under the same terms, then `Cc1nn(-c2ccccc2)c2sc(-c3nnc(SCCN4CCCCC4)n3C)cc12`, with “GSK3-α; also recorded: CHEK2”.
Still for that read-out and setting: the value for `c1cncc(-c2nnc(SCC3CC3)[nH]2)c1` [3-(5-(cyclopropylmethylthio)-4H-1,2,4-triazol-3-yl)pyridine] was “FLT-3; also recorded: AURORA-A”.
Same read-out and setting: then `COc1ccc(NCc2nnc(SCc3ccc([N+](=O)[O-])cc3)n2C)cc1`, with “FYN”.
Turning to `CCOc1ccc(NCc2nnc(SCCN3CCOCC3)n2-c2ccc(C)cc2)cc1`, the “protein kinase against which the compound exhibits inhibitory activity (Table 3)” value was “FYN”.
For the molecule `O=C(O)c1ccc(CSc2nnc(-c3ccc(OC(F)(F)F)cc3)[nH]2)cc1`, the “protein kinase against which the compound exhibits inhibitory activity (Table 3)” value is “FLT-3; also recorded: AURORA-A; also recorded: DYRK2”.
Same read-out and setting: the value for `Cc1ccc(-n2c(SCc3ccccc3)nnc2-c2cccnc2)cc1` [3-(5-(benzylthio)-4-p-tolyl-4H-1,2,4-triazol-3-yl)pyridine] was “AURORA-A”; that for `COc1ccccc1-n1c(SCCC(=O)O)nnc1C1CCCCC1` was “GSK3-α”; that for `COc1ccc(-n2c(COc3ccc4ccccc4c3)nnc2SCCN2CCOCC2)cc1` was “CDK2-cyclinE”.
The same measure, in the same setting: the value for `Cc1cccc(OCc2nnc(SCC(=O)N3c4ccccc4CCc4ccccc43)n2C)c1C` was “MSK2”; that for `FC(F)(F)c1cccc(-c2nnc(SCCc3ccccc3)[nH]2)c1` [3-(phenethylthio)-5-(3-(trifluoromethyl)phenyl)-4H-1,2,4-triazole] was “AURORA-A; also recorded: GSK3-α”; that for `COc1ccc(-c2nnc(SCc3ccc(S(C)(=O)=O)cc3)[nH]2)cc1` [3-(4-methoxyphenyl)-5-(4-(methylsulfonyl)benzylthio)-4H-1,2,4-triazole] was “FLT-3”.
In the case of `CCOCCSc1nnc(-c2ccc(OC(F)(F)F)cc2)[nH]1` [3-(2-ethoxyethylthio)-5-(4-(trifluoromethoxy)phenyl)-4H-1,2,4-triazole], the “protein kinase against which the compound exhibits inhibitory activity (Table 3)” value is “AURORA-A; also recorded: GSK3-β”.
On the same count and under the same terms, the value for `CCOCCSc1nnc(-c2ccc([N+](=O)[O-])cc2)[nH]1` was “FLT-3; also recorded: AURORA-A; also recorded: GSK3-α”.
Still for that read-out and setting: the value for `Cc1ccc(NCc2nnc(SCc3nnc(-c4ccccc4)o3)n2Cc2ccco2)c(C)c1` was “AURORA-A”; that for `Cc1nnc(SCc2nc3ccccc3[nH]2)[nH]1` [2-((5-methyl-4H-1,2,4-triazol-3-ylthio)methyl)-1H-benzo[d]imidazole] was “DYRK2; also recorded: FLT-3; also recorded: AURORA-A”.
